Reference: ChEMBL document CHEMBL1201862, “PubChem BioAssay data set” (2004)
The source made the active and inactive calls.

Columns and labels:
[1] = molecular target: Polyadenylate-binding protein 1 (Homo sapiens, UniProt P11940); experiment: PABP inhibition in translation initiation, SAR follow-up (AID 435018); type: functional
[2] = molecular target: Eukaryotic translation initiation factor 4H (Homo sapiens, UniProt Q15056); experiment: eIF4H inhibition in translation initiation, SAR follow-up (AID 435011); type: functional
Genome polyprotein = Genome polyprotein (dengue virus type 2, UniProt P29990); experiment: Dengue-2 NS5 methyltransferase inhibitors, primary screen, biochemical, confirmation dose response (AID 588689); type: functional
X-box-binding protein 1 = X-box-binding protein 1 (Homo sapiens, UniProt P17861); type: functional, Cricetulus griseus;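 further: confirmatory dose-response counter-screen serving a CHOP assay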
[3] = inhibitors of intracellular T. cruzi replication, confirmation, NIH3T3 host cells, beta-gal luminescence (AID 2044); type: functional, cell-based;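 further: intracellular parasites grown in NIH/3T3 mouse fibroblasts as host cells; luminescent beta-galactosidase reporter signal from transgenic T. cruzi replicating inside host cells; inhibitors lower the luminescence signal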
[4] = cytotoxicity toward NIH3T3 fibroblasts, dose response, counter-screen, cell-based, ATP luminescence, mouse fibroblasts (AID 2010); type: functional;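 further: cells exposed to compound for about 90 hours before reading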
Bcl-2-like protein 10 = molecular target: T1, Bcl-2-like protein 10 (Homo sapiens, UniProt Q9HD36); experiment: displacers of TR3 peptide from Bcl-B, primary screen, selectivity assay for Bfl-1 inhibitor project, biochemical, fluorescence polarization, FITC-TR3 peptide (AID 748);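 further: fluorescence polarization from a fluorescein-labelled TR3 peptide binding purified Bcl-B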
T1 sequence (Q9HD36 whole entry): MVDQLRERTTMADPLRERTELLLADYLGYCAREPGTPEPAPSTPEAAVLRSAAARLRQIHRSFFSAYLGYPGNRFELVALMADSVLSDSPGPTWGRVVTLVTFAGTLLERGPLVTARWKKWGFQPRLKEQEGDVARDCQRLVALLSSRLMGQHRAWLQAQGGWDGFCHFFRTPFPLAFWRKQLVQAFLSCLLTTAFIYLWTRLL

[5] = molecular target: T2, Corticotropin-releasing factor receptor 2/Corticotropin-releasing factor-binding protein (Homo sapiens, UniProt P24387+Q13324); experiment: activators of CRF receptor 2 with binding protein – uHTS hits, confirmation (AID 602473); type: functional; conditions: read-out: EC50_Mean
T2 sequence (Q13324 whole entry): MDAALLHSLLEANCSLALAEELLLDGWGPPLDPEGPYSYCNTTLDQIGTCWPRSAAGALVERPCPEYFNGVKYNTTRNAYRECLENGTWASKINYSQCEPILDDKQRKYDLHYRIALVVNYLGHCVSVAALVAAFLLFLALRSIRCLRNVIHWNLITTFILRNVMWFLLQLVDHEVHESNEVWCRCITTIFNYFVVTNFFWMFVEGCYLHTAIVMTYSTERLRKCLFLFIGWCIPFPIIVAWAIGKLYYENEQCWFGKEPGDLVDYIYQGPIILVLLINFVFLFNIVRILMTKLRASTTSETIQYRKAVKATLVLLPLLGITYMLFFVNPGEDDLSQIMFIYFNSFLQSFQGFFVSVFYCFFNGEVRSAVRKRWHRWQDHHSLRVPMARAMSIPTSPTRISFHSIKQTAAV
T2 sequence (P24387 whole entry): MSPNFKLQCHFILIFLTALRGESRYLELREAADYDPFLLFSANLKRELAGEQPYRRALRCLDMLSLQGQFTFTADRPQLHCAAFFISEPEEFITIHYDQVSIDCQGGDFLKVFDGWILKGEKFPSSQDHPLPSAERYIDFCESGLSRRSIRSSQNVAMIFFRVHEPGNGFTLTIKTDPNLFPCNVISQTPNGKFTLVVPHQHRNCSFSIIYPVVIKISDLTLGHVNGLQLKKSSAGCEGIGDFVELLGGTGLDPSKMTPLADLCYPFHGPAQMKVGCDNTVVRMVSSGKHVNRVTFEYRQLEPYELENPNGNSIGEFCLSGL

[6] = molecular target: T3, Carboxy-terminal domain RNA polymerase II polypeptide A small phosphatase 1 (Homo sapiens, UniProt Q9GZU7); experiment: inhibitors of CTDSP1, concentration-response testing, biochemical assay, absorbance-based, actives from ultra-high-throughput screening (AID 540297); type: functional
T3 sequence (Q9GZU7 whole entry): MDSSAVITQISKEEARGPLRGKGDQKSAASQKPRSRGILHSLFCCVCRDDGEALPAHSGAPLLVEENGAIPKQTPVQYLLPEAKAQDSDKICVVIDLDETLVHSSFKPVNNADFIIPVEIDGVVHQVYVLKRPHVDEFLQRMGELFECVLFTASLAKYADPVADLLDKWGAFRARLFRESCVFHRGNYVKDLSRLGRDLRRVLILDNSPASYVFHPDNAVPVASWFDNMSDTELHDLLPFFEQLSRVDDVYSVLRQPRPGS

[7] = molecular target: E3 ubiquitin-protein ligase XIAP (Homo sapiens, UniProt P98170); experiment: Counter Screen using XIAP-Bir3 for Chemical Antagonists of Bir1/2 domains of IAP-family anti-apoptotic proteins. [Related pubchem assays (depositor defined):AID1018, AID1449, AID1514, AID1638, AID1749, AID1750, AID488957, AID488963]
CAAX prenyl protease 2 = CAAX prenyl protease 2 (Saccharomyces cerevisiae S288c, UniProt Q03530); type: biochemical
[8] = tested on: Streptococcus sp. 'group A'; experiment: growth inhibition of control SK(-) GAS strain, dose response, counter-screen for streptokinase expression inhibitor project, luminescence, kanamycin, BacTiterGlo, confirmation (AID 1900); type: functional, organism-based
Cytochrome P450 2D6 = Cytochrome P450 2D6 (Homo sapiens, UniProt P10635);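 further: CYP2D6 member of a cytochrome P450 panel assay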
Streptokinase A = molecular target: T4, Streptokinase A (Streptococcus pyogenes serotype M1, UniProt P10520); experiment: S. pyogenes streptokinase expression inhibitors, potency, dose response, plasminogen activation absorbance, OD405 (AID 1914); type: functional, Streptococcus pyogenes M1 GAS;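 further: secreted streptokinase activity via plasminogen activation per viability signal from cell pellet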
T4 sequence (P10520 whole entry): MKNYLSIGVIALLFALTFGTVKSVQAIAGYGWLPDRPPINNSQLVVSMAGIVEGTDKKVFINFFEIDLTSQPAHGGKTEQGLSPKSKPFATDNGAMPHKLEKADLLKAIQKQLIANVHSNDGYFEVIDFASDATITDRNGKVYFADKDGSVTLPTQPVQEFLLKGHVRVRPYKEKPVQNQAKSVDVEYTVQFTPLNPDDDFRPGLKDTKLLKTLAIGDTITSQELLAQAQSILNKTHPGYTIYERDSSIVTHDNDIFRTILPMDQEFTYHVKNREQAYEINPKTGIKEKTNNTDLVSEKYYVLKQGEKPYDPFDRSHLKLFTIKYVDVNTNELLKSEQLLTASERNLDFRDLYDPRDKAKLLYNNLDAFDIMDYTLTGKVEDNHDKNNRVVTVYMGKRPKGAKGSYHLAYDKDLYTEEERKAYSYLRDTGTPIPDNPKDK

Streptococcus = experiment: Group A Streptococcus viability loss, dose response, counter-screen for streptokinase expression inhibitor project, luminescence, BacTiterGlo (AID 1915); type: functional, organism-based;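 further: potency for reduction of bacterial viability or growth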
Prothrombin = Prothrombin (Homo sapiens, UniProt P00734); experiment: Thrombin 1536 HTS Dose Response Confirmation. [Related pubchem assays: 1046 (Thrombin 1536 HTS; hits were confirmed in this assay)]; type: functional
Cytochrome P450 2C9 = Cytochrome P450 2C9 (Homo sapiens, UniProt P11712)
[9] = molecular target: G-protein coupled receptor 55 (Homo sapiens, UniProt Q9Y2T6); experiment: GPR55 agonists via beta-arrestin recruitment, primary screen, imaging, U2OS cells, beta-arrestin-GFP redistribution (AID 1961); type: functional
Coagulation factor XII = molecular target: T5, Coagulation factor XII (Homo sapiens, UniProt P00748); experiment: FXIIa inhibitor potency, concentration-response, biochemical (AID 716); type: functional
T5 sequence (P00748 whole entry): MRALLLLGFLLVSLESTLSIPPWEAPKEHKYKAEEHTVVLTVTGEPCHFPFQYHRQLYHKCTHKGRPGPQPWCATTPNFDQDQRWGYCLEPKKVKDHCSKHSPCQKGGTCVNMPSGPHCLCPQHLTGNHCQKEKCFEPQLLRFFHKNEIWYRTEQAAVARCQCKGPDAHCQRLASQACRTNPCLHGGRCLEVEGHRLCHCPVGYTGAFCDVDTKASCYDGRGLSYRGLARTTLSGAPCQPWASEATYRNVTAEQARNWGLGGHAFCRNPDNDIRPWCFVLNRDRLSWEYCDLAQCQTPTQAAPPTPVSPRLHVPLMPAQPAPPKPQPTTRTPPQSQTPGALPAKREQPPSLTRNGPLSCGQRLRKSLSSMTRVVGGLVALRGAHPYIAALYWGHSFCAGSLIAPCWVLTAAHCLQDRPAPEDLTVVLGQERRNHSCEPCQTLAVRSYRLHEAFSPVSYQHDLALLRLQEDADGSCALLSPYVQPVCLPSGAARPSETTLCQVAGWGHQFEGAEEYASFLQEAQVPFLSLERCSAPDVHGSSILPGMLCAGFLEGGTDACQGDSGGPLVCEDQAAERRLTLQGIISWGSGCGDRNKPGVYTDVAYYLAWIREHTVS

Perilipin-1/ABHD5 = Perilipin-1/ABHD5 (Homo sapiens, UniProt O60240+Q8WTS1); experiment: Luminescence-based biochemical high throughput dose response assay for inhibitors of the interaction of the lipase co-activator protein, abhydrolase domain containing 5 (ABHD5) with perilipin-1 (PLIN1) (2K validation set). [Related pubchem assays (depositor defined):AID493027, AID493057]
[10] = molecular target: 1-acylglycerol-3-phosphate O-acyltransferase ABHD5/Perilipin-5 (Homo sapiens, UniProt Q00G26+Q8WTS1); experiment: Luminescence-based biochemical high throughput dose response assay for inhibitors of the interaction of the lipase co-activator protein, abhydrolase domain containing 5 (ABHD5) with perilipin-5 (MLDP; PLIN5) (2K validation set). [Related pubchem assays (depositor defined):AID493035, AID493241]
Protein Rev = Protein Rev (Human immunodeficiency virus type 1 group M subtype B (isolate HXB2)(HIV-1), UniProt P04618); experiment: inhibitors of Rev binding to RRE RNA, dose response, biochemical, fluorescence polarization, HIV-1 (AID 434976); parameters: species or system Human immunodeficiency virus 1
[11] = molecular target: Induced myeloid leukemia cell differentiation protein Mcl-1 (Homo sapiens, UniProt Q07820); type: functional
[12] = molecular target: Female germline-specific tumor suppressor gld-1 (Caenorhabditis elegans, UniProt Q17339); experiment: inhibitors of GLD-1 binding to TGE RNA, dose response, biochemical, fluorescence polarization, C. elegans (AID 2802);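 further: fluorescence polarization of labeled TGE RNA bound by purified gld-1 protein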
HEK293 [13] = experiment: cells; type: functional, cell-based; conditions: Homo sapiens
HEK293 [14] = experiment: cells; type: functional, cell-based; conditions: Homo sapiens; remark: listed apart in the source
HEK293 [15] = experiment: NOD1 signaling inhibitors, primary screen, cell-based, luminescence, uHTS (AID 1578); type: functional; conditions: Homo sapiens
[16] = molecular target: Nucleotide-binding oligomerization domain-containing protein 2 (Homo sapiens, UniProt Q9HC29); experiment: NOD2 signaling inhibitors, cell-based, luminescence, uHTS, HEK293 (AID 1566); type: functional
HEK293 [17] = experiment: NOD2 signaling inhibitors in MDP-stimulated cells, cell-based, uHTS, luminescence (AID 2001); type: functional; conditions: Homo sapiens
HEK293 [18] = experiment: cells; type: functional, cell-based; conditions: Homo sapiens; remark: listed apart in the source
[19] = growth suppression of beta-catenin-knockout colon cells, dose response, cell-based, HCT116, human colon tumor (AID 1045); type: functional;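 further: HCT116 colon tumor cells with beta catenin knocked out; cells exposed to compound for 60 hours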
[20] = microbe, parasite or virus in culture; type: functional; conditions: Mycobacterium tuberculosis
[21] = growth suppression of PTEN-null colon cells, dose response, cell-based, HCT116 PTEN knockout (AID 1047); type: functional;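 further: HCT116 colon tumor cells with PTEN knocked out; cells exposed to compound for 60 hours before readout; potency for loss of cell viability measured by luminescence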
Nonstructural protein 1 = Nonstructural protein 1 (Influenza A virus, UniProt Q194T2); type: functional, Influenza A virus (A/California/07/2009(H1N1))
Sequence of Nonstructural protein 1 (Q194T2 whole entry): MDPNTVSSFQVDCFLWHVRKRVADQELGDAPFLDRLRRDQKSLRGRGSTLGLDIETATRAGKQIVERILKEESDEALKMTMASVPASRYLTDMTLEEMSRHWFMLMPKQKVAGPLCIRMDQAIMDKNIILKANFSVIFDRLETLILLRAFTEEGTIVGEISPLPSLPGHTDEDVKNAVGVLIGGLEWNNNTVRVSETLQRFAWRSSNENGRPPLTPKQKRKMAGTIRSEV

Sequence of G-protein coupled receptor 55 (Q9Y2T6 whole entry): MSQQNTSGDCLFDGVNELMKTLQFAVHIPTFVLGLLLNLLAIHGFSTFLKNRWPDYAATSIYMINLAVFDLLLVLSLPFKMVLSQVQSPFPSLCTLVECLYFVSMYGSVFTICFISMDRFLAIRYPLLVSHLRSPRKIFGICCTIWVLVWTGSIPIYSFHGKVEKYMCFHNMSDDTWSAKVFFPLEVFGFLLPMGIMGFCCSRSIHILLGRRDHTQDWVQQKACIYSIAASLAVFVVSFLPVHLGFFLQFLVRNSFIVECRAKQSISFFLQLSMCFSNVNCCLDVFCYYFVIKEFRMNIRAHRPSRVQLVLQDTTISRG
Sequence of Polyadenylate-binding protein 1 (P11940 whole entry): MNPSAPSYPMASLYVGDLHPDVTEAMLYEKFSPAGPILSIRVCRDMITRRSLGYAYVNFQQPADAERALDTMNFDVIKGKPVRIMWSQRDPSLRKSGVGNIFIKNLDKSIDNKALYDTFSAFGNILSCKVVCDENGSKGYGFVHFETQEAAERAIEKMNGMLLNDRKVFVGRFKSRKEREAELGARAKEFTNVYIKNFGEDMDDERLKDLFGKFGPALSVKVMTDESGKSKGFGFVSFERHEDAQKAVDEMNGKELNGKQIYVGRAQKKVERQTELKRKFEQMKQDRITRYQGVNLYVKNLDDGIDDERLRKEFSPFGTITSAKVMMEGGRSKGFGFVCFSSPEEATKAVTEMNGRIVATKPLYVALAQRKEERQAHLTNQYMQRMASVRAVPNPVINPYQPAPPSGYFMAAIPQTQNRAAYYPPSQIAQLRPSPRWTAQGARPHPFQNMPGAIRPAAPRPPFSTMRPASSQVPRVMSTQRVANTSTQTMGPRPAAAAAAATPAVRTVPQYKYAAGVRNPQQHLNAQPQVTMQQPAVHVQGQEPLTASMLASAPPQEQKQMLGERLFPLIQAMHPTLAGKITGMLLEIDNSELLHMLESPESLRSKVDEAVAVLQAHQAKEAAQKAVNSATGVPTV
Sequence of X-box-binding protein 1 (P17861 whole entry): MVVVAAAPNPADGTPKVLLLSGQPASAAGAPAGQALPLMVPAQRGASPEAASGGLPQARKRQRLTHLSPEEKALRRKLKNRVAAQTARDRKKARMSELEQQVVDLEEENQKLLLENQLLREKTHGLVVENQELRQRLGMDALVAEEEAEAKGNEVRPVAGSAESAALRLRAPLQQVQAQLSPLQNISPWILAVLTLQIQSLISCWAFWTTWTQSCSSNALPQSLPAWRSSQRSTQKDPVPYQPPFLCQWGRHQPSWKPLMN
Sequence of Cytochrome P450 2C9 (P11712 whole entry): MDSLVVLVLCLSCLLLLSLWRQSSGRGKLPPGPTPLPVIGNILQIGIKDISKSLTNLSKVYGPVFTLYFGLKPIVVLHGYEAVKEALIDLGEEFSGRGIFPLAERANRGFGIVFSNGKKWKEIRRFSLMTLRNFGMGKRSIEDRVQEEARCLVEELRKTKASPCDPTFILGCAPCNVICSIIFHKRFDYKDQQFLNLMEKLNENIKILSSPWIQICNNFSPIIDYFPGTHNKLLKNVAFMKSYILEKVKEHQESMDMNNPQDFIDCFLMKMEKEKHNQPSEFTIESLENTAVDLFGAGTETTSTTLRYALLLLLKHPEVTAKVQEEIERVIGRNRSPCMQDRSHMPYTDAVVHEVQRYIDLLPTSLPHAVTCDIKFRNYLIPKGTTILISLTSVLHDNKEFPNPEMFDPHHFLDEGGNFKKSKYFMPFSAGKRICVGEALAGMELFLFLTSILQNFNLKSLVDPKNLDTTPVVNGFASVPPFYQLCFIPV
Sequence of Perilipin-1/ABHD5 (Q8WTS1 whole entry, the tested form may be a part): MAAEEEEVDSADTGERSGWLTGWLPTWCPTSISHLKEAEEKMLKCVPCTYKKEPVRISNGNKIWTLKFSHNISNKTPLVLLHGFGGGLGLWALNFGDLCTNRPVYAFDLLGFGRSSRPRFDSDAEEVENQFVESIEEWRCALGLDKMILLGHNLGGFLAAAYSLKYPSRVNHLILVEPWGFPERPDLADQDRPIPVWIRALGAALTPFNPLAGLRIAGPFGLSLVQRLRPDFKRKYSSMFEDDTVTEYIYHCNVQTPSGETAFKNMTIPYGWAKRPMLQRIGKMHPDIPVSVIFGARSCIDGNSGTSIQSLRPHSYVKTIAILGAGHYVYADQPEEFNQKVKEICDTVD
Sequence of Perilipin-1/ABHD5 (O60240 whole entry, the tested form may be a part): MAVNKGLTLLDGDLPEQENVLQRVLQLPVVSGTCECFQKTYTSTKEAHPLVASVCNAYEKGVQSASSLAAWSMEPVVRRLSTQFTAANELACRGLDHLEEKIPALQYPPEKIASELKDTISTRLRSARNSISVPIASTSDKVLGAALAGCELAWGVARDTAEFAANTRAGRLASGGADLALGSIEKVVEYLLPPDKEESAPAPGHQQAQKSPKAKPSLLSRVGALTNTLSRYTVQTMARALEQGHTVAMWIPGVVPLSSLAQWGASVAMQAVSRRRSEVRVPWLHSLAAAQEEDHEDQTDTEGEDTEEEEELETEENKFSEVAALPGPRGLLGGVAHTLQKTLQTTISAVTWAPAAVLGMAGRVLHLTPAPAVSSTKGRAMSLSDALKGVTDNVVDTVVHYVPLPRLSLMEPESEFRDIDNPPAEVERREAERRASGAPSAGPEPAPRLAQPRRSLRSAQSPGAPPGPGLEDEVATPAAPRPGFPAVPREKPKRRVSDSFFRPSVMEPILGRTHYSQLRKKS
Sequence of Induced myeloid leukemia cell differentiation protein Mcl-1 (Q07820 whole entry): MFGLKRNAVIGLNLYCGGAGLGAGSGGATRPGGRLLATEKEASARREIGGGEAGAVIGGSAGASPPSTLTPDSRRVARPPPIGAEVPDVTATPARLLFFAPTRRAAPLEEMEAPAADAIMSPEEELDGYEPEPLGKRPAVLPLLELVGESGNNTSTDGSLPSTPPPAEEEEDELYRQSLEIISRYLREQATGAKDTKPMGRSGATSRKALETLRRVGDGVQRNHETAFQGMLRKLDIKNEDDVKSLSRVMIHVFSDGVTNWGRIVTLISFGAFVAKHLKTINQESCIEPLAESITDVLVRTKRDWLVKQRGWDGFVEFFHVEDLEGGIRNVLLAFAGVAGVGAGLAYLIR
Sequence of Genome polyprotein (P29990 2492-3391 limits assumed): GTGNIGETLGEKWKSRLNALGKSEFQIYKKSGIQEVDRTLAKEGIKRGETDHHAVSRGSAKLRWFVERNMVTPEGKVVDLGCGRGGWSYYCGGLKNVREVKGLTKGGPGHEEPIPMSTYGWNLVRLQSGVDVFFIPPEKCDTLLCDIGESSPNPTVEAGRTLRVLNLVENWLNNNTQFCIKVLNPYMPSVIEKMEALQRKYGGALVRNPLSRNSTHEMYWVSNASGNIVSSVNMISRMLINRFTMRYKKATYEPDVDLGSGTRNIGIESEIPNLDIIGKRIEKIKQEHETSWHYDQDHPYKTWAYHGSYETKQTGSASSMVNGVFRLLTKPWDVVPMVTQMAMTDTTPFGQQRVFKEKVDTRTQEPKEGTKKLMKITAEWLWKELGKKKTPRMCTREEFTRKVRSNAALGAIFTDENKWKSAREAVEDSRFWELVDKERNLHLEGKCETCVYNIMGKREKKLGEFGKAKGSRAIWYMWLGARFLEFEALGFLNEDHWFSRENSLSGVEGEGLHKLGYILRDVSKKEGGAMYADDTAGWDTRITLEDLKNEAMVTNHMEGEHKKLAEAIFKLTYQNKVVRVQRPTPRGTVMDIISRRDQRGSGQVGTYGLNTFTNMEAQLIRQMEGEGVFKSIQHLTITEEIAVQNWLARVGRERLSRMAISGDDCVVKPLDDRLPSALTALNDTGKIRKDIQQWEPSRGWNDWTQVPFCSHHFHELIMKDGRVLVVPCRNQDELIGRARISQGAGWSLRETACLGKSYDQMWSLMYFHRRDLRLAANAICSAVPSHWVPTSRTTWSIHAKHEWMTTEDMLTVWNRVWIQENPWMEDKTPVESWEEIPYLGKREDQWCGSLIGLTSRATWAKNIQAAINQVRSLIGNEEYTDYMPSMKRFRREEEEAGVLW
Sequence of E3 ubiquitin-protein ligase XIAP (P98170 whole entry): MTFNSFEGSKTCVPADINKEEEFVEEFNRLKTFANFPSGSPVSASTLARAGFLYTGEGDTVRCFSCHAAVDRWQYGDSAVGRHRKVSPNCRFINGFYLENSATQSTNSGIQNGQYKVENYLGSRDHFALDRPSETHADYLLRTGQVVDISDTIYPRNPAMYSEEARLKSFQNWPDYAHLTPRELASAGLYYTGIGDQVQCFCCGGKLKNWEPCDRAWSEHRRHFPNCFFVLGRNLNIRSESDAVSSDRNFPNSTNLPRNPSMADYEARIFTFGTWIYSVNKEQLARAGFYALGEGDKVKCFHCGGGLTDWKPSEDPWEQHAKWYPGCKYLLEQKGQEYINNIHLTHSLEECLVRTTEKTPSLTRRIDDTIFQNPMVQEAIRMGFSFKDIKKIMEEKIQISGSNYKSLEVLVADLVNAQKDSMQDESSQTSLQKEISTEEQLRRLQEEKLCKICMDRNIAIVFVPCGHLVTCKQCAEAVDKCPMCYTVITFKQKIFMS
Sequence of Protein Rev (P04618 whole entry): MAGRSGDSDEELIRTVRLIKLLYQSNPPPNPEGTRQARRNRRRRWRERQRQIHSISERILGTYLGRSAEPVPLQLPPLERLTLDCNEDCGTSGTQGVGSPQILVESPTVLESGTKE

COc1ccc(C(=O)OCC(=O)Nc2ccc([N+](=O)[O-])cc2OC)c(O)c1
IC50 [1]: > 100 µM (inactive)
IC50 [2]: > 100 µM (inactive)

CSC(SC)=C(C#N)C(=O)c1ccccc1
IC50 (Genome polyprotein): 84.6 µM (active)
Absolute IC50 (XBP1) (X-box-binding protein 1): 10 µM

Cc1cc2c(cc1C)NC(c1c(C)n(C)n(-c3ccccc3)c1=O)C1=C(O)CC(C)(C)CC1=N2 (stereo not given)
EC50 [3]: 2.27 µM (active)
EC50 [4]: > 30 µM (not active)
IC50 (Bcl-2-like protein 10): > 1.56 µM (inactive)
EC50 [5]: > 53 µM (inactive)

Cc1ccccc1NC(=O)CN1C(=O)N/C(=C\c2ccccc2OCc2ccc(C(=O)O)cc2)C1=O
IC50 [1]: 78.5 µM (active)
IC50 [2]: 7.28 µM (active)
IC50 [6]: 4.3 µM (active)
IC50 [7]: > 20 µM (inactive)

COc1ccc(C2Nc3ccccc3C(=O)N2Cc2ccccc2)cc1COc1ccccn1 (stereo not given)
AC50 (CAAX prenyl protease 2): 5.83 µM (active)

Cc1ccccc1-n1cnc2cc(NCc3cccs3)ccc21
EC50 [8]: 16.8 µM (active)
AC50 (Cytochrome P450 2D6): 2.24 µM (inconclusive)
EC50 (Streptokinase A): 87.8 µM (active)
EC50 (Streptococcus): > 150 µM (not active)
IC50 (Prothrombin): > 50 µM (not active)
AC50 (Cytochrome P450 2C9): 39.8 µM (inconclusive)
EC50 [9]: > 32 µM (inactive)

Cn1c(=O)c(C(=O)CN2CCCc3ccccc32)c(N)n(Cc2ccccc2)c1=O
IC50 (Coagulation factor XII): > 50 µM (inactive)

COc1ccc(/C=C/C(=O)c2cc3cccc(OC)c3oc2=O)cc1
IC50 (Perilipin-1/ABHD5): 3.34 µM (active)
IC50 [10]: 3.3 µM (active)

CCOCC(=O)Nc1cc(-c2cn3cccnc3n2)ccc1C
IC50 (Coagulation factor XII): > 50 µM (inactive)
AC50 (Cytochrome P450 2C9): 22.4 µM (inconclusive)

CC(C)c1nnc(N2C(=O)c3oc4ccccc4c(=O)c3C2c2ccco2)s1 (stereo not given)
Absolute IC50 (XBP1) (X-box-binding protein 1): 10 µM

CN(C)c1ccc(/N=C2\C(=O)N(C)c3cccc4c(O)c5ccccc5c2c34)cc1
IC50 (Protein Rev): 1.05 µM (active)
IC50 [11]: 10.6 µM (active)
IC50 [12]: 868 nM (active)

Cc1ccc(NC(=O)CCC(=O)N/N=C/c2ccccc2O)cc1
IC50 (HEK293 [13]): > 20 µM (inactive)
IC50 (HEK293 [14]): 14.7 µM (active)
EC50 (HEK293 [15]): > 20 µM (inactive)
EC50 [16]: > 20 µM (inactive)
IC50 (HEK293 [17]): > 20 µM (inactive)
IC50 (HEK293 [18]): > 20 µM (inactive)

O=C1Nc2ccccc2/C1=N\N=C\C1=C(N2CCOCC2)C(=C\c2ccccc2)/CC1
EC50 [19]: 16 µM (active)
CC50 [20]: 28.2 µM (active)
EC50 [21]: 14.2 µM (active)
IC50 (Nonstructural protein 1): 8.08 µM (active)
EC50 [9]: > 32 µM (inactive)
